One compound from publication PMC5675611, “GZD824 suppresses the growth of human B cell precursor acute lymphoblastic leukemia cells by inhibiting the SRC kinase and PI3K/AKT pathways” (Oncotarget, 2016) can be followed below.

Holding throughout (format): cell-based, human
For one assay, the system named is IRS1. As to the kind of experiment: Western blot of primary pre-B ALL cells. To be noted: GZD824 1μM, IGF-1 10ng/ML, 24 hours. The method, then:
(§1) Figure 6 GZD824 inhibits PI3K/AKT signaling in pre-B ALL cells A. Cells were harvested from PB, SP, and BM of P#2 xenograft mice and cultured with or without 1μM GZD824 for 24h. Bars represent the mean percentages of AnnexinV+ cells in each group. B. Primary pre-B ALL cells from spleen of P#1 xenograft mouse treated with DMSO, GZD824 (1μM), IGF-1 (10ng/ML), or both. Bars represent the mean percentages of AnnexinV+ cells in each group. C. Western blot analysis of NALM6 cells. Cells were treated with DMSO, GZD824 (1μM), or GZD824 (3μM) for 24 hours. Lysates were analyzed with antibodies against IRS1, phosphate AKT, and AKT. D. Western blot analysis of primary pre-B ALL cells. Primary cells treated with GZD824 (1μM), IGF-1 (10ng/ML), or both for 24 hours. Lysates were analyzed with antibodies against Irs1, phosphate AKT, and AKT.
(§2) For Western blot analysis, 30 μg of total protein extracts prepared from NALM6 or primary pre-B ALL cells from SP of PDX mice were separated on SDS-PAGE and transferred to a PVDF membrane (Bio-Rad, Hercules, CA, USA). The following commercially available antibodies and dilutions were used for Western blotting: human anti-STAT3 (ab119352, Abcam, UK), human anti-phospho-STAT3 (Y705) (ab76315, Abcam, UK), human anti-SRC (ab32102, Abcam, UK), human anti-phospho-SRC (Y419) (ab185617, Abcam, UK), human anti-RB (9313, Cell Signaling Technology, MA, USA), human anti-phospho–RB (Ser807/811) (8516, Cell Signaling Technology, MA, USA), human anti-C-myc (13987, Cell Signaling Technology, MA, USA), anti-AKT (pan) (4691P, Cell Signaling Technology, MA, USA), anti-phospho-AKT (Ser473) (4060P, Cell Signaling Technology, MA, USA), anti-IRS-1 (2390S, Cell Signaling Technology, MA, USA), and human anti–β-actin (4970, Cell Signaling Technology, MA, USA). Western blot analysis was performed with cell lines or primary pre-B ALL cells from SP following GZD824 treatment, and signal intensities were normalized to β-actin signals.

The test system of assay [1] is phosphorylated AKT (Ser473). As to the kind of experiment: Western blot of primary pre-B ALL cells. As to conditions: GZD824 1μM, IGF-1 10ng/ML, 24 hours. The method, then: as §1, §2
Another assay has as its system phospho-SRC. Kind of assay: Western blot of NALM6 cells. To be noted: NALM6, 1μM or 3μM, 24 hours. How it is done: (§3) Figure 5 GZD824 inhibits the SRC kinase in pre-B ALL cells A-C. Western blot analysis of […]-treated NALM6 cells. Cells were treated with DMSO, GZD824 (1μM), or GZD824 (3μM) for 24 hours. Lysates were analyzed with antibodies to (A) phospho-SRC and SRC; (B) phospho-STAT3 and STAT3; and (C) phospho-Rb, Rb, and C-Myc. D. qRT-PCR products of BCL-XL, CCND1, CDK4, and CCK[…] mRNA were normalized to GAPDH and presented as fold increase or decrease compared to control, 24 hours after treatment with 3 μM GZD824. E. NALM6 cells were treated with GZD824, SRC inhibitor (KX2-391), STAT3 inhibitor (HO-3867), or DMSO for 24 hours. Statistical analysis of Annexin V-positive cells in 3μM of drug treated NALM6 cells. All data from independent experiments are presented as mean ± SEM. Significance values: ^*P<0.05; ^**P<0.01; ^***P<0.001. For Western blot analysis, 30 μg of total protein extracts prepared from NALM6 or primary pre-B ALL cells from SP of PDX mice were separated on SDS-PAGE and transferred to a PVDF membrane (Bio-Rad, Hercules, CA, USA). The following commercially available antibodies and dilutions were used for Western blotting: human anti-STAT3 (ab119352, Abcam, UK), human anti-phospho-STAT3 (Y705) (ab76315, Abcam, UK), human anti-SRC (ab32102, Abcam, UK), human anti-phospho-SRC ([…]) (ab185617, Abcam, UK), human anti-RB (9313, Cell Signaling Technology, MA, USA), human anti-phospho-RB (Ser807/811) (8516, Cell Signaling Technology, MA, USA), human anti-C-myc (13987, Cell Signaling Technology, MA, USA), anti-AKT (pan) ([…], Cell Signaling Technology, MA, USA), anti-phospho-AKT (Ser473) ([…], Cell Signaling Technology, MA, USA), anti-IRS-1 ([…], Cell Signaling Technology, MA, USA), and human anti-β-actin (4970, Cell Signaling Technology, MA, USA). Western blot analysis was performed with cell lines or primary pre-B ALL cells from SP following GZD824 treatment, and signal intensities were normalized to β-actin signals.

A further assay deals with phospho-Rb. Kind of assay: Western blot of NALM6 cells. As to conditions: NALM6, 1μM or 3μM, 24 hours. How it is done: as §3
The subject of the next assay is phospho-STAT3. Kind of assay: Western blot of NALM6 cells. As to conditions: NALM6, 1μM or 3μM, 24 hours. The method, then:
as §3

Another assay concerns C-Myc. As to the kind of experiment: Western blot of NALM6 cells. To be noted: NALM6, 1μM or 3μM, 24 hours. How it is done: as §3
Another assay has as its system NALM6 cells. Kind of assay: Cell-cycle analysis (PI staining, flow cytometry). How it is done:
Human pre-B ALL cell lines NALM6 and SUPB15 were purchased from American Type Culture Collection (ATCC, Maryland, USA). All pre-B ALL cell lines were maintained in cell culture media and conditions as recommended by the ATCC. Cells were treated with GZD824 for 24 hours. GZD824 (3μM, 1μM, or 0.5μM) was used in the experiments unless otherwise noted. NALM6 and SUPB15 cells were maintained in RPMI-1640 medium (Gibco, New York, NY, USA) with 10% fetal bovine serum (Biochrom, Melbourne, Australia). Cell cycle analysis was performed by flow cytometry after propidium iodide (PI) staining as described. Approximately 2 × 10^6 cells were suspended in 0.5 ml of phosphate-buffered saline (PBS) and vortexed with 3 ml of 80% ethanol. Cells were fixed at 4°C for 1 hr, washed with PBS, re-suspended in PBS, and vortexed vigorously. Cells were re-suspended in 1 ml of PBS containing 50 μg/ml of DNase-free RNase A (EN0531, Thermo Fisher scientific, Waltham, USA) and 50 μg/ml of propidium iodide PI (P4170, Sigma Aldrich, St. Louis, MO, USA). Cells were stained for at least 1 hr at room temperature in the dark. Stained cells were then subjected to flow cytometric analysis by an Accuri™ C6 (BD Biosciences, CA, USA).

As for `Cc1ccc(C(=O)Nc2ccc(CN3CCN(C)CC3)c(C(F)(F)F)c2)cc1C#Cc1cnc2[nH]ncc2c1` [GZD824], the “levels of IRS1” value in the assay with IRS1 is on record as “reduction”. Also, the “levels of phosphorylated AKT (Ser473)” value in assay [1] was “reduction”. The “phosphorylated SRC” value with phospho-SRC was “reduced”. Moreover, in the assay on phospho-Rb, the Rb phosphorylation entry is on record as “suppressed”. Besides, in the assay on phospho-STAT3, the “phosphorylated STAT3” value is “reduced”. In addition, the c-Myc oncogene expression result in the assay on C-Myc is reported as “downregulated”. The “proportions of the G0/G1 fraction” value in the assay on NALM6 cells (NALM6, 500 nM) is listed as “increased”. Besides, the “percentage of the G0/G1 fraction” value with NALM6 cells (NALM6, 3μM, 24 hours) came to 71.6%.
